The values that follow are results of earlier work, collected in patent US5658892A, “Compound delivery using high-pressure impulse transients” (The General Hospital Corporation, priority 1995, dated 1997).

Molecules are shown by their SMILES.

This data set deals with prostate tumors. The settings on record: rats, Holmes et al. 1990.

Consider `N.N.[Cl][Pt][Cl]` [cisplatinum], for which the tumor growth result (combined with high-pressure, short-duration waves) is listed as “delayed tumor growth was achieved”. Besides, the “animal mortality (relative to cisplatinum alone)” value (combined with shock wave therapy) is recorded as “an increase in animal mortality”.
